In ChEMBL document CHEMBL6087398, “Natural phenol carbamates: Selective BuChE/FAAH dual inhibitors show neuroprotection in an Alzheimer's disease mouse model” (Eur J Med Chem, 2025):
pIC50, pKd: −log10 of the molar value. Active and inactive are the calls of the source. The rule behind the calls is not given here.

Tests used:
[1] = biological target: T1, Fatty-acid amide hydrolase 1 (Homo sapiens, UniProt O00519); assay: Inhibition of human FAAH
T1 sequence (O00519 whole entry): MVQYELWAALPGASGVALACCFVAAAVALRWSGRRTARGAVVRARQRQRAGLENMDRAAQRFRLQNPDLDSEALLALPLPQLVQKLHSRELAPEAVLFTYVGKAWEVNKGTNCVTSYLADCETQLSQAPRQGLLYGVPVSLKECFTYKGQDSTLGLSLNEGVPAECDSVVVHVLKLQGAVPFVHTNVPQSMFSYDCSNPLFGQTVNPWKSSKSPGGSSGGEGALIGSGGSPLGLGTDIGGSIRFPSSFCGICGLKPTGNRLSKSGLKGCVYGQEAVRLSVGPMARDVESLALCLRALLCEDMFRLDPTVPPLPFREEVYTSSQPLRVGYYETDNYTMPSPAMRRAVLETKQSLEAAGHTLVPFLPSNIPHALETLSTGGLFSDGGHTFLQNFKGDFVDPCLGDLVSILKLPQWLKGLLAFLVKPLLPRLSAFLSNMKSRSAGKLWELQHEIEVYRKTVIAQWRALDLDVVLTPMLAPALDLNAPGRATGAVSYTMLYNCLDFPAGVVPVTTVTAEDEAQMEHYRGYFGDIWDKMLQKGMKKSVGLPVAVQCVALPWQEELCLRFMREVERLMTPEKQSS

[2] = biological target: Acetylcholinesterase (Electrophorus electricus) (UniProt O42275); assay: Inhibition of electric eel AChE using acetylthiocholine iodide as substrate preincubated with enzyme for 20 mins followed by substrate addition and measured after 20 mins by Ellman's method; design: concentration or dose not given beside the values; details: time 40.0 min
[3] = in vitro; details: PAMPA, pH 7.4
Description: Permeability of the compound in PBS at pH 7.4 incubated for 18 hrs by PAMPA-BBB assay

[4] = system: BV-2; assay: Immunomodulatory activity in mouse BV-2 cells assessed as decrease in LPS induced IL-1 beta release at 10 uM incubated for 24 hrs by Western blotting analysis; type: functional, cell-based
[5] = biological target: T1, Fatty-acid amide hydrolase 1; assay: Inhibition of human FAAH using arachidonoyl amide as substrate incubated for 30 mins by fluorescence-based cayman assay
[6] = system: L02; assay: Cytotoxicity against human L02 cells assessed as reduction in cell viability at 6.25 to 50 uM incubated for 24 hrs by MTT assay relative to control; type: toxicity, cell-based; details: l02, 24 h, dose 6.25-50 µM
[7] = system: Mus musculus; assay: Antialzheimer activity against amyloid beta (1 to 42 residues) induced ICR male mouse model assessed as increase in neuron density in hippocampal CA1 region at 10 mg/kg, po administered for 12 days and measured on day 15 by H and E staining based analysis; type: functional, organism-based; details: time 12.0 day
[8] = biological target: Cholinesterase (Equus caballus, UniProt P81908); assay: Inhibition of equine BuChE using butyrylthiocholine iodide as substrate preincubated with enzyme for 20 mins followed by substrate addition and measured after 20 mins by Ellman's method
[9] = biological target: T2, Cholinesterase (Homo sapiens, UniProt P06276); assay: Binding affinity to human BuChE (unknown origin) assessed as decarbamolyation rate at 100 to 1000 nM incubated for 60 mins; details: dose 100-1000 nM
[10] = system: PC-12; assay: Neuroprotective activity against H2O2 induced rat PC12 cells assessed as cell viability measured after 24 hrs by MTT assay; type: functional, cell-based; details: dose 6.25-50 µM
[11] = Neurotoxicity against mouse BV-2 cells assessed as reduction in cell viability at 25 to 50 uM incubated for 24 hrs by MTT assay; type: toxicity, cell-based; details: bv-2, 24 h, dose 25-50 µM
[12] = biological target: T2, Cholinesterase; assay: Binding affinity to human BuChE (unknown origin) assessed as carbamolyation rate at 100 to 1000 nM incubated for 60 mins; details: dose 100-1000 nM
[13] = biological target: T2, Cholinesterase; assay: Inhibition of human BuChE using butyrylthiocholine iodide as substrate incubated for 5 mins
[14] = system: Mus musculus; assay: Antialzheimer activity against amyloid beta (1 to 42 residues) induced ICR male mouse model assessed as reduction in amyloid beta (1 to 42 residues) at 10 mg/kg, po administered for 12 days by ELISA relative to control; type: functional; design: scale not given: the % may be the effect or the level left; details: time 12 day
[15] = biological target: Acetylcholinesterase (Homo sapiens) (UniProt P22303); assay: Inhibition of recombinant human AChE using acetylthiocholine iodide as substrate incubated for 5 mins relative to control
[16] = Toxicity in amyloid beta (1 to 42 residues) induced ICR male mouse model assessed as pericentral necrosis at 10 mg/kg, po administered for 12 days and measured on day 15 by H and E staining based immunohistochemistry analysis; type: organism-based; details: in vivo, 288 h, time 12 day
[17] = system: L02; assay: Cytotoxicity against human L02 cells assessed as reduction in cell viability at 12.5 uM incubated for 24 hrs by MTT assay; type: toxicity, cell-based; details: l02, 24 h
[18] = system: BV-2; assay: Immunomodulatory activity in mouse BV-2 cells assessed as decrease in LPS induced IL-1 beta release incubated for 24 hrs by Western blotting analysis; type: functional, cell-based; details: dose 0-10 µM
[19] = system: BV-2; assay: Induction of microglial polarization to M2 phenotype in mouse BV-2 cells assessed as reduction in iNOS activity incubated for 24 hrs by Western blotting analysis; type: functional, cell-based
[20] = system: Mus musculus; assay: Antialzheimer activity against amyloid beta (1 to 42 residues) induced ICR male mouse model assessed as prevention in cognitive dysfunction at 10 mg/kg, po administered for 12 days by Morris water maze test; type: functional, organism-based; details: time 12.0 day
[21] = biological target: T2, Cholinesterase; assay: Binding affinity to human BuChE (unknown origin) assessed as equilibrium dissociation constant at 100 to 1000 nM incubated for 60 mins
[22] = system: BV-2; assay: Induction of microglial polarization to M2 phenotype in mouse BV-2 cells assessed as increase in Arg-1 activity incubated for 24 hrs by Western blotting analysis; type: functional, cell-based
[23] = Toxicity in amyloid beta (1 to 42 residues) induced ICR male mouse model assessed as effect on body weight at 10 mg/kg, po administered for 12 days and measured daily; type: organism-based; details: in vivo, 288 h, time 12 day
[24] = Toxicity in amyloid beta (1 to 42 residues) induced ICR male mouse model assessed as hepatocyte fatty degeneration at 10 mg/kg, po administered for 12 days and measured on day 15 by H and E staining based immunohistochemistry analysis; type: organism-based; details: in vivo, 288 h, time 12 day
[25] = Neurotoxicity against mouse BV-2 cells assessed as improvement in cell morphological changes at 20 uM by inverted microscopic analysis; type: toxicity, cell-based; details: bv-2, 20 µM
[26] = biological target: T2, Cholinesterase; assay: Binding affinity to human BuChE (unknown origin) assessed as overall carbamolyation rate at 100 to 1000 nM incubated for 60 mins
[27] = system: BV-2; assay: Induction of microglial polarization to M2 phenotype in mouse BV-2 cells assessed as increase in CD206 expression incubated for 24 hrs by Western blotting analysis; type: functional, cell-based; details: dose 0-10 µM
[28] = system: BV-2; assay: Induction of microglial polarization to M2 phenotype in mouse BV-2 cells assessed as increase in Arg-1 expression incubated for 24 hrs by Western blotting analysis; type: functional, cell-based; details: dose 0-10 µM
[29] = system: PC-12; assay: Neuroprotective activity against H2O2 induced rat PC12 cells assessed as increase in cell viability at 50 uM measured after 24 hrs by MTT assay relative to control; type: functional
[30] = system: BV-2; assay: Immunomodulatory activity in mouse BV-2 cells assessed as decrease in LPS induced iNOS expression at 10 uM incubated for 24 hrs by Western blotting analysis; type: functional, cell-based

T2 sequence (P06276 whole entry): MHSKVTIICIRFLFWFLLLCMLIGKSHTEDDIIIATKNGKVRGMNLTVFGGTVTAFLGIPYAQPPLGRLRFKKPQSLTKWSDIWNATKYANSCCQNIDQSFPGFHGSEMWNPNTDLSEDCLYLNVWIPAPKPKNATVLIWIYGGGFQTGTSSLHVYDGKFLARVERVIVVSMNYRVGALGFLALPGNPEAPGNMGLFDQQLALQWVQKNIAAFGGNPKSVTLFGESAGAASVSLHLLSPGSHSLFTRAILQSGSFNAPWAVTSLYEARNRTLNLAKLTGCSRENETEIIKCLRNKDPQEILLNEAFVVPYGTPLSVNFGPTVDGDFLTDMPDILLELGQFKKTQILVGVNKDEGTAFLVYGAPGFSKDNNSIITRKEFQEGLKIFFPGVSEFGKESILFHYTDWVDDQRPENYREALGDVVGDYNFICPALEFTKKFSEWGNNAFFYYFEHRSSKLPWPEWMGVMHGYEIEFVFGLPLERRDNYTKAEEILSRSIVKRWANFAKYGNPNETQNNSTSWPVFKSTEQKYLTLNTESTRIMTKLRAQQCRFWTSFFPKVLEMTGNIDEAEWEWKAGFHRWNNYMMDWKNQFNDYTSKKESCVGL
Sequence of Acetylcholinesterase (Electrophorus electricus) (O42275 24-633 limits assumed): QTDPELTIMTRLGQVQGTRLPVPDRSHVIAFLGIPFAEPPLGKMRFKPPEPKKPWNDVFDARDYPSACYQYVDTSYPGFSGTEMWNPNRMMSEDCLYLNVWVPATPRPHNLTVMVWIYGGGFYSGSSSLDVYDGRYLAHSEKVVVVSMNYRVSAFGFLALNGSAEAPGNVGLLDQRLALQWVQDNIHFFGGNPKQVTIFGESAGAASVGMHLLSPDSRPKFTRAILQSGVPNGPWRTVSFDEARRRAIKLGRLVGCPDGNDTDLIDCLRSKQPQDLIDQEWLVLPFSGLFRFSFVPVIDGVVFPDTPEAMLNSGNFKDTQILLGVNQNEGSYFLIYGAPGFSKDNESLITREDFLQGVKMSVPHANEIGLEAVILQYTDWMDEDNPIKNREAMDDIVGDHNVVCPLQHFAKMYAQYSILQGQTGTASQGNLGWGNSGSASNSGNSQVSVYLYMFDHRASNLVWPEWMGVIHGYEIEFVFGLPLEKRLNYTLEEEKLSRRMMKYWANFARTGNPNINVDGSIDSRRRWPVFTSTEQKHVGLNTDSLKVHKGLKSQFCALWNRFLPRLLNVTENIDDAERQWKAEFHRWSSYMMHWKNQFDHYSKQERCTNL
Sequence of Cholinesterase (Equus caballus, UniProt P81908) (P81908 whole entry): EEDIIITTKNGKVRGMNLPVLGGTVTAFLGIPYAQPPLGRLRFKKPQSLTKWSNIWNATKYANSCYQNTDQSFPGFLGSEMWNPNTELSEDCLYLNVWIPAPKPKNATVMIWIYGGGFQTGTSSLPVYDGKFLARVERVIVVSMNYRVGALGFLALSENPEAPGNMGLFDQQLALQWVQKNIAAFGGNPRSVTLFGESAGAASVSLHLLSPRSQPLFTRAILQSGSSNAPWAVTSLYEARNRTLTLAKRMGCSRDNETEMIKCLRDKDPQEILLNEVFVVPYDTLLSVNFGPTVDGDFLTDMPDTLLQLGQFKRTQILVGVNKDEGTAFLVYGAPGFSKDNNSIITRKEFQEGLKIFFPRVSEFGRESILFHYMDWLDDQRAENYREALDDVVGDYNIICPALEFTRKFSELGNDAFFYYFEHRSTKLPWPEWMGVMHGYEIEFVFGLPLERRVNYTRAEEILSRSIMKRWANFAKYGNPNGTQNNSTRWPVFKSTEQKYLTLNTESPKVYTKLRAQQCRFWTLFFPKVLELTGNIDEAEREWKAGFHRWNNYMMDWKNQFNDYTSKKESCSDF
Sequence of Acetylcholinesterase (Homo sapiens) (P22303 whole entry, the tested form may be a part): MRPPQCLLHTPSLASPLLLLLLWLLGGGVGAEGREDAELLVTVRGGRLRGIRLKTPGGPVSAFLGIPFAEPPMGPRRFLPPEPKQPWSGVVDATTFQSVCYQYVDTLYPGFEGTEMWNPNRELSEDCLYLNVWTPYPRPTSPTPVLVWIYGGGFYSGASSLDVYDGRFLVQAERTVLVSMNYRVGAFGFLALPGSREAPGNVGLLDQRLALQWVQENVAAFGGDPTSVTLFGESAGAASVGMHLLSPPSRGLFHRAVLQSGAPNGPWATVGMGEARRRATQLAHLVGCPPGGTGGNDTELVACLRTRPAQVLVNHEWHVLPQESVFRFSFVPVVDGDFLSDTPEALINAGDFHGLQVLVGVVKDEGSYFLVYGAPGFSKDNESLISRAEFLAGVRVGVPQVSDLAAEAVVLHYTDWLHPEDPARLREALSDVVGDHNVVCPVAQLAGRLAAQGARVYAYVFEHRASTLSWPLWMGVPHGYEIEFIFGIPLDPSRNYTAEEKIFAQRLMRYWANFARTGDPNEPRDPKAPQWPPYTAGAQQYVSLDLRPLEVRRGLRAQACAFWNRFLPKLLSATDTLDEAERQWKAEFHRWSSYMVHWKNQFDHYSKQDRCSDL

`CN(C(=O)n1cnc(-c2ccc[n+]([O-])c2)c1)C1CCCCC1` showed a pIC50 [1] of 5.12.

For `COc1ccc(C(C)=O)c(OC(=O)N(C)Cc2ccc(F)cc2)c1`, the inhibition [2] was 53%, the Papp at 18 h [3] was 16.4 ×10⁻⁶ cm/s and the Activity [4] was “Active”. For the same molecule, the pIC50 [5] was 6.40, the Activity [6] was 88.6% and the Activity [7] was “Active”. The pIC50 [8] was 7.92, the K [9] was 2.83 min⁻¹ and the Activity [10] was “Dose-dependent-effect”. For the same molecule, the Activity [11] was “Non-toxic”, the K [12] was 2.27 min⁻¹ and the pIC50 [13] was 7.09. The Activity [14] was 8.8%, the inhibition [15] was 10.4% and the Activity [16] was “Non-toxic”. The Activity [17] was “Non-toxic”, the Activity [18] was “Dose-dependent-effect” and the Activity [19] was “Active”. The Activity [20] was “Active”, the pKd [21] was 5.68 and the Activity [22] was “Active”. The Activity [23] was “Non-toxic”, the Activity [24] was “Non-toxic” and the Activity [25] was “Non-toxic”. The Ki [26] was 2.8 10^-3/uM/min, the Activity [27] was “Dose-dependent-effect” and the Activity [28] was “Dose-dependent-effect”. For the same molecule, the Activity [29] was 43% and the Activity [30] was “Active”.
